Experimental data taken from US6472348B1, “Pyridone derivatives and herbicides” (Kumiai Chemical Industry Co., Ltd., priority 1996, dated 2002).

Test system: Digitaria ciliaris (Di)
Experiment: Test Example 2: herbicidal effects by upland field soil treatment;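 further: grade of growth control; 5 = at least 90%; 4 = 70 to 90%; 3 = 50 to 70%; 2 = 30 to 50%; 1 = 10 to 30%; 0 = under 10%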
Type: in vivo
Conditions: 100 g of the active ingredient per 10 ares, 21st day after the application, index 0-5 of Table 47
Source text: (§1) (Test on Herbicidal Effects by Upland Field Soil Treatment)

SMILES	Herbicidal effects Di
CCOC(=O)C(C)OC(=O)c1cc(-c2ccc(C(F)(F)F)n(C)c2=O)c(F)cc1Cl (racemic) [1-143]	5
Cn1c(C(F)(F)F)ccc(-c2cc(OCC(=O)OC3CCCC3)c(Cl)cc2F)c1=O [1-102]	5
Cn1c(C(F)(F)F)ccc(-c2ccc(Cl)cc2Cl)c1=O [1-3]	5
CC(Oc1cc(-c2ccc(C(F)(F)F)n(C)c2=O)c(F)cc1Cl)C1CC1 (stereo not drawn) [1-161]	5
COC(=O)COc1cc(-c2ccc(C(F)(F)F)n(C)c2=O)c(F)cc1Cl [1-99]	5

Test system: barnyardgrass (Ec)
Experiment: as above
Type: in vivo
Conditions: 100 g of the active ingredient per 10 ares, 21st day after the application, index 0-5 of Table 47
Source text: as §1

SMILES	Herbicidal effects Ec
CCOC(=O)C(C)OC(=O)c1cc(-c2ccc(C(F)(F)F)n(C)c2=O)c(F)cc1Cl (racemic) [1-143]	5
Cn1c(C(F)(F)F)ccc(-c2cc(OCC(=O)OC3CCCC3)c(Cl)cc2F)c1=O [1-102]	5
Cn1c(C(F)(F)F)ccc(-c2ccc(Cl)cc2Cl)c1=O [1-3]	5
CC(Oc1cc(-c2ccc(C(F)(F)F)n(C)c2=O)c(F)cc1Cl)C1CC1 (stereo not drawn) [1-161]	5
COC(=O)COc1cc(-c2ccc(C(F)(F)F)n(C)c2=O)c(F)cc1Cl [1-99]	5

Test system: rice flatsedge (Ci)
Experiment: as above
Type: in vivo
Conditions: 100 g of the active ingredient per 10 ares, 21st day after the application, index 0-5 of Table 47
Source text: as §1

SMILES	Herbicidal effects Ci
CCOC(=O)C(C)OC(=O)c1cc(-c2ccc(C(F)(F)F)n(C)c2=O)c(F)cc1Cl (racemic) [1-143]	5
Cn1c(C(F)(F)F)ccc(-c2cc(OCC(=O)OC3CCCC3)c(Cl)cc2F)c1=O [1-102]	5
Cn1c(C(F)(F)F)ccc(-c2ccc(Cl)cc2Cl)c1=O [1-3]	5
CC(Oc1cc(-c2ccc(C(F)(F)F)n(C)c2=O)c(F)cc1Cl)C1CC1 (stereo not drawn) [1-161]	5
COC(=O)COc1cc(-c2ccc(C(F)(F)F)n(C)c2=O)c(F)cc1Cl [1-99]	5

Test system: pale smartweed (Po)
Experiment: as above
Type: in vivo
Conditions: 100 g of the active ingredient per 10 ares, 21st day after the application, index 0-5 of Table 47
Source text: as §1

SMILES	Herbicidal effects Po
CCOC(=O)C(C)OC(=O)c1cc(-c2ccc(C(F)(F)F)n(C)c2=O)c(F)cc1Cl (racemic) [1-143]	5
Cn1c(C(F)(F)F)ccc(-c2cc(OCC(=O)OC3CCCC3)c(Cl)cc2F)c1=O [1-102]	4
Cn1c(C(F)(F)F)ccc(-c2ccc(Cl)cc2Cl)c1=O [1-3]	5
CC(Oc1cc(-c2ccc(C(F)(F)F)n(C)c2=O)c(F)cc1Cl)C1CC1 (stereo not drawn) [1-161]	5
COC(=O)COc1cc(-c2ccc(C(F)(F)F)n(C)c2=O)c(F)cc1Cl [1-99]	5

Test system: common lambsquarters (Ch)
Experiment: as above
Type: in vivo
Conditions: 100 g of the active ingredient per 10 ares, 21st day after the application, index 0-5 of Table 47
Source text: as §1

SMILES	Herbicidal effects Ch
CCOC(=O)C(C)OC(=O)c1cc(-c2ccc(C(F)(F)F)n(C)c2=O)c(F)cc1Cl (racemic) [1-143]	5
Cn1c(C(F)(F)F)ccc(-c2cc(OCC(=O)OC3CCCC3)c(Cl)cc2F)c1=O [1-102]	5
Cn1c(C(F)(F)F)ccc(-c2ccc(Cl)cc2Cl)c1=O [1-3]	5
CC(Oc1cc(-c2ccc(C(F)(F)F)n(C)c2=O)c(F)cc1Cl)C1CC1 (stereo not drawn) [1-161]	5
COC(=O)COc1cc(-c2ccc(C(F)(F)F)n(C)c2=O)c(F)cc1Cl [1-99]	5

Test system: slender amaranth (Am)
Experiment: as above
Type: in vivo
Conditions: 100 g of the active ingredient per 10 ares, 21st day after the application, index 0-5 of Table 47
Source text: as §1

SMILES	Herbicidal effects Am
CCOC(=O)C(C)OC(=O)c1cc(-c2ccc(C(F)(F)F)n(C)c2=O)c(F)cc1Cl (racemic) [1-143]	5
Cn1c(C(F)(F)F)ccc(-c2cc(OCC(=O)OC3CCCC3)c(Cl)cc2F)c1=O [1-102]	5
Cn1c(C(F)(F)F)ccc(-c2ccc(Cl)cc2Cl)c1=O [1-3]	5
CC(Oc1cc(-c2ccc(C(F)(F)F)n(C)c2=O)c(F)cc1Cl)C1CC1 (stereo not drawn) [1-161]	5
COC(=O)COc1cc(-c2ccc(C(F)(F)F)n(C)c2=O)c(F)cc1Cl [1-99]	5

Test system: barnyardgrass (Ec)
Experiment: Test Example 1: herbicidal effects by paddy field soil treatment;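 further: grade of growth control; 5 = at least 90%; 4 = 70 to 90%; 3 = 50 to 70%; 2 = 30 to 50%; 1 = 10 to 30%; 0 = under 10%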
Type: in vivo
Conditions: 100 g of the active ingredient per 10 ares, 21st day after the application, index 0-5 of Table 47
Summary of the method: (§2)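 Scoring of herbicidal effect came 21 days after application of 100 g active ingredient per 10 ares to flooded (3 cm) paddy-soil pots sown with barnyardgrass, monochoria and bulrush, kept in a greenhouse.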

SMILES	Herbicidal effects Ec
CCOC(=O)C(C)OC(=O)c1cc(-c2ccc(C(F)(F)F)n(C)c2=O)c(F)cc1Cl (racemic) [1-143]	5
Cn1c(C(F)(F)F)ccc(-c2cc(OCC(=O)OC3CCCC3)c(Cl)cc2F)c1=O [1-102]	5
Cn1c(C(F)(F)F)ccc(-c2ccc(Cl)cc2Cl)c1=O [1-3]	5
CC(Oc1cc(-c2ccc(C(F)(F)F)n(C)c2=O)c(F)cc1Cl)C1CC1 (stereo not drawn) [1-161]	5
COC(=O)COc1cc(-c2ccc(C(F)(F)F)n(C)c2=O)c(F)cc1Cl [1-99]	5

Test system: monochoria (Mo)
Experiment: as above
Type: in vivo
Conditions: 100 g of the active ingredient per 10 ares, 21st day after the application, index 0-5 of Table 47
Summary of the method: as §2

SMILES	Herbicidal effects Mo
CCOC(=O)C(C)OC(=O)c1cc(-c2ccc(C(F)(F)F)n(C)c2=O)c(F)cc1Cl (racemic) [1-143]	5
Cn1c(C(F)(F)F)ccc(-c2cc(OCC(=O)OC3CCCC3)c(Cl)cc2F)c1=O [1-102]	5
Cn1c(C(F)(F)F)ccc(-c2ccc(Cl)cc2Cl)c1=O [1-3]	5
CC(Oc1cc(-c2ccc(C(F)(F)F)n(C)c2=O)c(F)cc1Cl)C1CC1 (stereo not drawn) [1-161]	5
COC(=O)COc1cc(-c2ccc(C(F)(F)F)n(C)c2=O)c(F)cc1Cl [1-99]	5

Test system: bulrush (Sc)
Experiment: as above
Type: in vivo
Conditions: 100 g of the active ingredient per 10 ares, 21st day after the application, index 0-5 of Table 47
Summary of the method: as §2

SMILES	Herbicidal effects Sc
CCOC(=O)C(C)OC(=O)c1cc(-c2ccc(C(F)(F)F)n(C)c2=O)c(F)cc1Cl (racemic) [1-143]	5
Cn1c(C(F)(F)F)ccc(-c2cc(OCC(=O)OC3CCCC3)c(Cl)cc2F)c1=O [1-102]	5
Cn1c(C(F)(F)F)ccc(-c2ccc(Cl)cc2Cl)c1=O [1-3]	5
CC(Oc1cc(-c2ccc(C(F)(F)F)n(C)c2=O)c(F)cc1Cl)C1CC1 (stereo not drawn) [1-161]	5
COC(=O)COc1cc(-c2ccc(C(F)(F)F)n(C)c2=O)c(F)cc1Cl [1-99]	5

Test system: barnyardgrass (Ec)
Experiment: Test Example 3: herbicidal effects by upland field foliage treatment
Type: in vivo
Set-up: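 grade of growth control; 5 = at least 90%; 4 = 70 to 90%; 3 = 50 to 70%; 2 = 30 to 50%; 1 = 10 to 30%; 0 = under 10%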
Conditions: 100 g of the active ingredient per 10 ares, evaluated on the 14th day after treatment
Summary of the method: (§3)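 Weeds were sown in sand-filled pots (surface area: 120 cm^2), covered with soil and grown in a greenhouse for 2 weeks before foliar treatment. Plants then stayed in the greenhouse, and herbicidal effect was scored against graded standards on the 14th day after treatment.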

SMILES	Herbicidal effects Ec
CCOC(=O)C(C)OC(=O)c1cc(-c2ccc(C(F)(F)F)n(C)c2=O)c(F)cc1Cl (racemic) [1-143]	5
Cn1c(C(F)(F)F)ccc(-c2cc(OCC(=O)OC3CCCC3)c(Cl)cc2F)c1=O [1-102]	5
Cn1c(C(F)(F)F)ccc(-c2ccc(Cl)cc2Cl)c1=O [1-3]	5
CC(Oc1cc(-c2ccc(C(F)(F)F)n(C)c2=O)c(F)cc1Cl)C1CC1 (stereo not drawn) [1-161]	5
COC(=O)COc1cc(-c2ccc(C(F)(F)F)n(C)c2=O)c(F)cc1Cl [1-99]	5

Test system: rice flatsedge (Ci)
Experiment: as above
Type: in vivo
Set-up: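 grade of growth control; 5 = at least 90%; 4 = 70 to 90%; 3 = 50 to 70%; 2 = 30 to 50%; 1 = 10 to 30%; 0 = under 10%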
Conditions: 100 g of the active ingredient per 10 ares, evaluated on the 14th day after treatment
Summary of the method: as §3

SMILES	Herbicidal effects Ci
CCOC(=O)C(C)OC(=O)c1cc(-c2ccc(C(F)(F)F)n(C)c2=O)c(F)cc1Cl (racemic) [1-143]	5
Cn1c(C(F)(F)F)ccc(-c2cc(OCC(=O)OC3CCCC3)c(Cl)cc2F)c1=O [1-102]	5
Cn1c(C(F)(F)F)ccc(-c2ccc(Cl)cc2Cl)c1=O [1-3]	5
CC(Oc1cc(-c2ccc(C(F)(F)F)n(C)c2=O)c(F)cc1Cl)C1CC1 (stereo not drawn) [1-161]	5
COC(=O)COc1cc(-c2ccc(C(F)(F)F)n(C)c2=O)c(F)cc1Cl [1-99]	5

Test system: pale smartweed (Po)
Experiment: as above
Type: in vivo
Set-up: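 grade of growth control; 5 = at least 90%; 4 = 70 to 90%; 3 = 50 to 70%; 2 = 30 to 50%; 1 = 10 to 30%; 0 = under 10%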
Conditions: 100 g of the active ingredient per 10 ares, evaluated on the 14th day after treatment
Summary of the method: as §3

SMILES	Herbicidal effects Po
CCOC(=O)C(C)OC(=O)c1cc(-c2ccc(C(F)(F)F)n(C)c2=O)c(F)cc1Cl (racemic) [1-143]	5
Cn1c(C(F)(F)F)ccc(-c2cc(OCC(=O)OC3CCCC3)c(Cl)cc2F)c1=O [1-102]	5
Cn1c(C(F)(F)F)ccc(-c2ccc(Cl)cc2Cl)c1=O [1-3]	5
CC(Oc1cc(-c2ccc(C(F)(F)F)n(C)c2=O)c(F)cc1Cl)C1CC1 (stereo not drawn) [1-161]	5
COC(=O)COc1cc(-c2ccc(C(F)(F)F)n(C)c2=O)c(F)cc1Cl [1-99]	5

Test system: common lambsquarters (Ch)
Experiment: as above
Type: in vivo
Set-up: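 grade of growth control; 5 = at least 90%; 4 = 70 to 90%; 3 = 50 to 70%; 2 = 30 to 50%; 1 = 10 to 30%; 0 = under 10%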
Conditions: 100 g of the active ingredient per 10 ares, evaluated on the 14th day after treatment
Summary of the method: as §3

SMILES	Herbicidal effects Ch
CCOC(=O)C(C)OC(=O)c1cc(-c2ccc(C(F)(F)F)n(C)c2=O)c(F)cc1Cl (racemic) [1-143]	5
Cn1c(C(F)(F)F)ccc(-c2cc(OCC(=O)OC3CCCC3)c(Cl)cc2F)c1=O [1-102]	5
Cn1c(C(F)(F)F)ccc(-c2ccc(Cl)cc2Cl)c1=O [1-3]	5
CC(Oc1cc(-c2ccc(C(F)(F)F)n(C)c2=O)c(F)cc1Cl)C1CC1 (stereo not drawn) [1-161]	5
COC(=O)COc1cc(-c2ccc(C(F)(F)F)n(C)c2=O)c(F)cc1Cl [1-99]	5

Test system: Diaitaria ciliaris (Di)
Experiment: as above
Type: in vivo
Set-up: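 grade of growth control; 5 = at least 90%; 4 = 70 to 90%; 3 = 50 to 70%; 2 = 30 to 50%; 1 = 10 to 30%; 0 = under 10%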
Conditions: 100 g of the active ingredient per 10 ares, evaluated on the 14th day after treatment
Summary of the method: as §3

SMILES	Herbicidal effects Di
CCOC(=O)C(C)OC(=O)c1cc(-c2ccc(C(F)(F)F)n(C)c2=O)c(F)cc1Cl (racemic) [1-143]	5
Cn1c(C(F)(F)F)ccc(-c2cc(OCC(=O)OC3CCCC3)c(Cl)cc2F)c1=O [1-102]	5
Cn1c(C(F)(F)F)ccc(-c2ccc(Cl)cc2Cl)c1=O [1-3]	5
CC(Oc1cc(-c2ccc(C(F)(F)F)n(C)c2=O)c(F)cc1Cl)C1CC1 (stereo not drawn) [1-161]	5
COC(=O)COc1cc(-c2ccc(C(F)(F)F)n(C)c2=O)c(F)cc1Cl [1-99]	5

Test system: slender amaranth (Am)
Experiment: as above
Type: in vivo
Set-up: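 grade of growth control; 5 = at least 90%; 4 = 70 to 90%; 3 = 50 to 70%; 2 = 30 to 50%; 1 = 10 to 30%; 0 = under 10%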
Conditions: 100 g of the active ingredient per 10 ares, evaluated on the 14th day after treatment
Summary of the method: as §3

SMILES	Herbicidal effects Am
CCOC(=O)C(C)OC(=O)c1cc(-c2ccc(C(F)(F)F)n(C)c2=O)c(F)cc1Cl (racemic) [1-143]	5
Cn1c(C(F)(F)F)ccc(-c2cc(OCC(=O)OC3CCCC3)c(Cl)cc2F)c1=O [1-102]	5
Cn1c(C(F)(F)F)ccc(-c2ccc(Cl)cc2Cl)c1=O [1-3]	5
CC(Oc1cc(-c2ccc(C(F)(F)F)n(C)c2=O)c(F)cc1Cl)C1CC1 (stereo not drawn) [1-161]	5
COC(=O)COc1cc(-c2ccc(C(F)(F)F)n(C)c2=O)c(F)cc1Cl [1-99]	5
